Legend:
Type in all cases: cell-based
[1] = system: HT-29 cells (colorectal adenocarcinoma); assay: Inhibition of cancer cell proliferation, HT-29 (CellTiterGlo, 72 hours); conditions: Homo sapiens
Procedure, shortened: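 Proliferation over 72 h at 37° C was read by CellTiterGlo luminescence, translated to cell counts with a cell-density standard curve (390–50,000 cells). Compound added as 3-fold dilutions from a 5,000 nM two-fold stock to 3000 seeded HT-29 cells; GI50 from percent inhibition relative to untreated wells.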

[2] = system: HCT116 cells (colorectal carcinoma); assay: Inhibition of cancer cell proliferation, HCT116 (CellTiterGlo, 72 hours); conditions: Homo sapiens, HCT-116
Procedure, shortened: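 3000 cells per well exposed to 3-fold serial compound dilutions from 5,000 nM (two-fold solution, stock level) for 72 hours at 37° C. CellTiterGlo luminescence converted to cell number via a standard curve; percent inhibition vs untreated wells, GI50 by curve fit.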

[3] = system: A375 cells (malignant melanoma); assay: Inhibition of cancer cell proliferation, A375 (CellTiterGlo, 72 hours); conditions: Homo sapiens, A-375
Procedure, shortened: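 GI50 derived from % growth inhibition relative to untreated wells, after luminescence (CellTiterGlo, 10 min) was converted to cell counts using a standard curve. Compound given as 3-fold dilutions from a 2× 5,000 nM stock in serum-free DMEM; 3000 A375 cells/well, 72 h culture at 37 °C.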

GI50 [1] [nM] | GI50 [2] [nM] | GI50 [3] [nM] | SMILES
< 100 | 501 to 999 | 101 to 500 | C=CC(=O)Nc1cc(C)ccc1Nc1nc(Nc2nc(OC)ncc2F)ncc1C(F)(F)F [Compound I-357, N-(2-((2-((5-fluoro-2-methoxypyrimidin-4-yl)amino)-5-(trifluoromethyl)pyrimidin-4-yl)amino)-5-methylphenyl)acrylamide]
101 to 500 | 501 to 999 | 101 to 500 | C=CC(=O)Nc1cc(C)ccc1Nc1nc(Nc2cc(OC)cnc2Cl)ncc1C(F)(F)F [Compound I-361, N-(2-((2-((2-chloro-5-methoxypyridin-3-yl)amino)-5-(trifluoromethyl)pyrimidin-4-yl)amino)-5-methylphenyl)acrylamide]
101 to 500 | 501 to 999 | 101 to 500 | C=CC(=O)Nc1cc(C)ccc1Nc1nc(Nc2nc(OC)ncc2Cl)ncc1C(F)(F)F [Compound I-344, N-(2-((2-((5-chloro-2-methoxypyrimidin-4-yl)amino)-5-(trifluoromethyl)pyrimidin-4-yl)amino)-5-methylphenyl)acrylamide]
101 to 500 | 101 to 500 | 101 to 500 | C=CC(=O)Nc1cc(CN2CCN(C(C)=O)CC2)ccc1Nc1nc(Nc2cc(OC)ncc2C)ncc1C(F)(F)F [Compound I-381, N-(5-((4-acetylpiperazin-1-yl)methyl)-2-((2-((2-methoxy-5-methylpyridin-4-yl)amino)-5-(trifluoromethyl)pyrimidin-4-yl)amino)phenyl)acrylamide]

Continued, molecule first:

SMILES | GI50 [1] [nM] | GI50 [2] [nM] | GI50 [3] [nM]
C=CC(=O)Nc1cc(C)ccc1Nc1nc(Nc2nc(OC)ncc2C)ncc1C(F)(F)F [Compound I-347, N-(2-((2-((2-methoxy-5-methylpyrimidin-4-yl)amino)-5-(trifluoromethyl)pyrimidin-4-yl)amino)-5-methylphenyl)acrylamide] | 101 to 500 | 501 to 999 | < 100
C=CC(=O)Nc1cc(C)ccc1Nc1nc(Nc2ncc(F)c(OC)n2)ncc1C(F)(F)F [Compound I-356, N-(2-((2-((5-fluoro-4-methoxypyrimidin-2-yl)amino)-5-(trifluoromethyl)pyrimidin-4-yl)amino)-5-methylphenyl)acrylamide] | 501 to 999 | > 1000 | 501 to 999
C=CC(=O)Nc1cc(C)ccc1Nc1nc(Nc2cc(OC)nc(OC)c2)ncc1C(F)(F)F [Compound I-96] | < 100 | < 100 | 101 to 500
C=CC(=O)Nc1cc(C)ccc1Nc1nc(Nc2nc(O)ncc2C)ncc1C(F)(F)F [Compound I-364, N-(2-((2-((2-hydroxy-5-methylpyrimidin-4-yl)amino)-5-(trifluoromethyl)pyrimidin-4-yl)amino)-5-methylphenyl)acrylamide] | 101 to 500 | 101 to 500 | < 100
C=CC(=O)Nc1cc(CCC(N)=O)ccc1Nc1nc(Nc2cc(OC)ncc2C)ncc1C(F)(F)F [Compound I-400, N-(5-(3-amino-3-oxopropyl)-2-((2-((2-methoxy-5-methylpyridin-4-yl)amino)-5-(trifluoromethyl)pyrimidin-4-yl)amino)phenyl)acrylamide] | 101 to 500 | 501 to 999 | 101 to 500
C=CC(=O)Nc1cc(C)ccc1Nc1nc(Nc2cc(C(C)=O)ccc2C)ncc1C(F)(F)F [Compound I-84, N-(2-((2-((5-Acetyl-2-methylphenyl)amino)-5-(trifluoromethyl)pyrimidin-4-yl)amino)-5-methylphenyl)acrylamide] | 101 to 500 | 501 to 999 | 101 to 500

From US9561228B2 (Celgene Avilomics Research, Inc., priority 2013, dated 2017)
